Laboratory results published in patent publication US7951788B2, “Method of treating cancer and other conditions or disease states using L-cytosine nucleoside analogs” (Yale University, priority 2005, dated 2011).

Assays:
colon 38 = experiment: Experiment 2: enhancement of the anti-cancer effect of oxaliplatin on colon 38 growth in mice; assay type: in vivo, C57BL6 female mice; settings: combination with oxaliplatin 10 mg/kg i.p. once on day 1, FIG. 2; for enhancement of the anti-tumor effect of oxaliplatin on colon 38: nucleoside p.o. b.i.d. days 1-5 (3TC, FTC 100 mg/kg; LFd4C 15 mg/kg per legend); for duration of the enhancing effect with oxaliplatin: nucleoside p.o. b.i.d. days 1-5
Method: (§1) In general, the following protocol was used to implant mice with tumor cell lines and to test drugs for the anti-cancer effect.
(§2) This tumor is passed from a solid tumor growing in mice. Several grams (assuming a gram per ml) are pressed through a sterile screen and suspended in a tissue culture media without phenol red or fetal calf serum (a balanced salt solution) at 2 ml/gram of tumor. Then 0.1 ml of this tumor suspension is implanted into the flank of the mouse. Ten days to two weeks after implantation (when the tumors could be measured with a caliper), unless otherwise indicated, the drug therapy was initiated.
(§3) In general, drugs are delivered according to the following schedule. Every day the mice are weighed to deter the amount to be injected and as an index of toxicity.
(§4) The Tumor Volume is calculated from the measurements by the formula: length (mm)×width (mm)×width (mm)×Π/6 as a % of Day 1.
Experiment 2 tested the effects of 3TC, FTC and LFD4C (same schedule as above) on the enhancement of anti-cancer drug effect of oxaliplatin (10 mg/kg i.p., once on day 1) on colon 38 growth in C57BL6 female mice. […].
In FIG. 2, the following legend applies:
3TC and FTC (100 mg/kg) p.o.b.i.d. day 1-5;
LFd4C (15 mg/kg) p.o.b.i.d. days 1-5;
Oxaplatin (10 mg/kg) i.p. once on day 1;
Combination groups received both treatments as described above.

colon 38 mouse tumor = experiment: Experiment 1: growth of colon 38 tumor implanted in the flank of mice, drugs alone and combined with 5-FU/leucovorin; assay type: in vivo; settings: FIG. 1; for effect on the anti-cancer activity of 5-FU/LV: combination with 5FU/LV 150 mg/kg each i.p. once on day one, nucleoside p.o. b.i.d. for 5 days (3TC, FTC 100 mg/kg; LFD4C 20 mg/kg); for growth of colon 38 mouse tumor (tumor volume as % of Day 1): drug alone; for growth of colon 38 mouse tumor (tumor volume as % of Day 1) / duration of the effect on colon 38 tumor growth: immunocompetent mice, p.o. b.i.d. for 5 days, 3TC and FTC 100 mg/kg, LFD4C 20 mg/kg
Method: as §1, §2, §3, §4
This experiment was designed to determine the effect of 3TC, FTC or LFD4C alone and in combination with 5-Fluorouracil with leucovorin rescue on the growth of mouse tumor (colon 38) in immuno-competent mice. The drugs were administered to the mice according to the following schedule:
5FU/LV—150 mg/kg each i.p. once on day one
3TC—100 mg/kg p.o. b.i.d. for 5 days
FTC—100 mg/kg p.o. bid for 5 days
LFD4C—20 mg/kg p.o. b.i.d. for 5 days
Combination groups received both treatments as per above schedules.
In FIG. 1, the following legend applies:
3TC (100 mg/kg) p.o.b.i.d.×5 days;
FTC (100 mg/kg) p.o.b.i.d.×5 days;
LFd4C (20 mg/kg) p.o.b.i.d.×5 days;
Combination groups received both treatments as per above.

| SMILES | enhancement of the anti-tumor effect of oxaliplatin on colon 38 (colon 38) | duration of the enhancing effect with oxaliplatin (colon 38) | effect on the anti-cancer activity of 5-FU/LV (colon 38 mouse tumor) | growth of colon 38 mouse tumor (tumor volume as % of Day 1) (colon 38 mouse tumor) | duration of the effect on colon 38 tumor growth (colon 38 mouse tumor) |
| --- | --- | --- | --- | --- | --- |
| Nc1nc(=O)n([C@@H]2CS[C@H](CO)O2)cc1F [FTC, emtricitabine] | clearly enhanced | lasts well after the treatment is stopped | significant (additive or synergistic) | slows down the growth | lasted well past the 5 day therapy |
| Nc1nc(=O)n([C@@H]2C=C[C@H](CO)O2)cc1F [LFD4C, Elvucitabine] | clearly enhanced | lasts well after the treatment is stopped | significant (additive or synergistic) | slows down the growth | lasted well past the 5 day therapy |
